Results: patent US20220408725A1, “NEW DEFOLIANT AND APPLICATION THEREOF” (CHENGDU NEWSUN CROP SCIENCE CO., LTD., priority 2020, published 2022)

System: pepper plants
Assay: Pot spray test of defoliants on pepper plants (defoliation rate and fruit abscission rate)
Assay type: in vivo
Conditions: sprayed once
Method: 1 Test temperature and humidity
The defoliant listed in Table 1 is diluted to a certain extent for application. See Table 2 for the active constituents and dilution factor of the defoliant.
100X, 160X and 400X dilution of the C12-C14 fatty alcohol polyoxyethylene (5) ether refers to 100X, 160X and 400X dilution of the defoliant listed in Table 1 containing an active constituent of C12-C14 fatty alcohol polyoxyethylene (5) ether. 160X+1400X dilution of the C12-C14 fatty alcohol polyoxyethylene (5) ether+40% ethephon refers to 160X dilution of the defoliant listed in Table 1 containing an active constituent of C12-C14 fatty alcohol polyoxyethylene (5) ether and mixture with 40% ethephon subject to 1400X dilution, equivalent to that the mixed solution contains 0.5% of C12-C14 fatty alcohol polyoxyethylene (5) ether and 0.029% of ethephon.
A total of 7 treatment plots (including 1 for control group, with water) are arranged for the test, each including 5 pots.
Spray method. The test reagent is prepared according to the design requirements, and then applied once to each treatment plot by uniformly spraying it onto each pot as per 100 ml/m^2 of water consumption, while ensuring consistent spray onto each treatment plot and sufficient spray to cover the whole plant.
Investigating the total number of treated leaves and fruits of each plant before application of the reagent, and 3 days, 5 days, 7 days, 20 days and 25 days after the application, calculating the defoliation rate and observing the influence on fruits.
Adding fixedly 150 ml of water to each pot each time.
According to the investigated data, calculating the defoliation rate as per equation (1), in the unit of percentage (%), rounded to two decimal places.
(1) Defoliation rate (%)=(total number of treated leaves—number of remaining leaves)/total number of treated leaves.
(2) Corrected defoliation rate (%)=(defoliation rate of the treatment plot—defoliation rate of the control group)/(1-defoliation rate of the control group)*100.
If the defoliation rate of the control group <5%, correction is not required; otherwise, the result should be corrected as per equation (2).
(3) Fruit abscission rate (%)=(total number of treated fruits—number of remaining fruits)/total number of treated fruits.
The defoliation effect on the pepper plants is analyzed through comparison of the results of the pots before and after application of the reagent and the control group.

[1] = 100X dilution of Table 1 defoliant
[2] = 160X dilution of Table 1 defoliant
[3] = 400X dilution of Table 1 defoliant

Substance | Defoliation rate 3 days after application [1] [%] | Defoliation rate 5 days after application [1] [%] | Defoliation rate 7 days after application [1] [%] | Defoliation rate 20 days after application [1] [%] | Defoliation rate 25 days after application [1] [%] | Defoliation rate 3 days after application [2] [%] | Defoliation rate 5 days after application [2] [%] | Defoliation rate 7 days after application [2] [%] | Defoliation rate 20 days after application [2] [%] | Defoliation rate 25 days after application [2] [%] | Defoliation rate 3 days after application [3] [%] | Defoliation rate 5 days after application [3] [%] | Defoliation rate 7 days after application [3] [%] | Defoliation rate 20 days after application [3] [%] | Defoliation rate 25 days after application [3] [%]
Full branched-chain C12 fatty alcohol polyoxyethylene (5) ether [Treatment 2] | 72.15 | 87.4 | 100 | 84.33 | 75.8 | 74.69 | 85.12 | 93.59 | 72.18 | 18.07 | 5.58 | 16.17 | 21.83 | 32.56 | 7.88
Straight-chain C12-14 fatty alcohol polyoxyethylene (5) ether [Treatment 3] | 54.46 | 68.84 | 86.02 | 69.02 | 35.12 | 38.84 | 43.16 | 64.73 | 56.79 | 35.09 | 6.99 | 10.84 | 15.88 | 27.07 | 8.36
Isomeric C13 fatty alcohol polyoxyethylene (5) ether [Treatment 4] | 23.88 | 40.42 | 66.7 | 64.66 | 16.35 | 14.35 | 16.59 | 25.25 | 27.79 | 7.78 | −3.15 | −2.02 | 5.81 | 8.88 | −2.16
C12-C14 fatty alcohol polyoxyethylene (5) ether [Treatment 1] | 60.03 | 78.72 | 94.97 | 69.9 | 18.42 | 66.25 | 70.63 | 79.71 | 73.64 | 51.64 | −1.46 | 4.66 | 14.5 | 26.17 | 17.95
